In US20250161290A1, “CO-CRYSTALS” (CereSpir Incorporated, priority 2021, published 2025):
In brackets after ≈: the same amount, converted by molar mass.

Experiments:
[1] = Coformer solubility assessment in organic solvents (qualitative); type: physicochemical; details: gentle heating 45° C. if required; for solubility: organic solvent or mixture, thermodynamic from solid
Experimental: Coformer solubility assessment was then performed. The following solvents were selected under these solvent classifications, which represent typical manufacturing solvents and have good solvent-solvent miscibility: • 1. Aprotic Polar: acetone, ethyl acetate, acetonitrile; • 2. Hydrogen Bond Donor: ethanol, methanol; and • 3. Electron Pair Donor: MTBE instead of diethyl ether.
Approximately 0.1 mmol of the coformer was weighed out into a 1-dram vial, enough solvent was added to achieve a 0.2 M concentration, and if required, gentle heating was applied at 45° C. for about 1 minute. […] After 65 hours, observations were made to determine if the coformers had remained in solution.

[2] = Coformer and CSP-1103 aqueous solubility assessment (qualitative); type: physicochemical; details: water, thermodynamic from solid, 0.05 M aqueous concentration, gentle heating at 45° C. for 1 minute
Experimental: In a 1-dram vial, enough solvent was added to achieve a 0.05 M aqueous concentration along with some gentle heating at 45° C. for 1 minute to determine if the material would completely dissolve. After 24 hours, observations were made to determine if the material had remained in solution.

[3] = Consolidated qualitative solubility results (Tables 6 and 8); details: for qualitative solvent solubility overlaid with cocrystallization screens' results: Table 8, numbers are molar concentrations pending investigation; for consolidated solubility result: Table 6
[4] = Dynamic Vapor Sorption (DVS) water sorption/desorption; type: physicochemical
Experimental: (§1) Samples are analyzed using a TA Instruments Q5000SA gravimetric water sorption analyzer. The relative humidity (RH) is adjusted in 10% RH increments between 5-95% (±1% RH) at 25° C. (±0.5%° C.). The mass of a sample is continuously monitored and recorded with respect to RH and time with criteria for mass equilibrium set as a percent mass change <0.0100 for 5 minutes with a time limit of 720 minutes per step. The humidity is controlled by mixing dry and wet nitrogen streams with a total flow rate of 200 mL/min. The instrument control and data analysis are operated under Advantage for Q Series and Universal Analysis software, respectively.

[5] = XRPD of pre-exposed and post-exposed DVS samples (solid form stability); type: physicochemical; details: two DVS sorption/desorption cycles, 5-95% RH, 25° C.
Experimental: X-ray powder diffraction analyses are obtained using a BRUKER D8 ADVANCE equipped with a Cu radiation source operated at 40 kV and 40 mA (λ=1.54 Å after Ni filtering) configured in a Bragg-Brentano geometry, equipped with a 90-position AUTO-CHANGER and a silicon strip detector (SSD160-2). A coupled theta-two theta continuous PSD (Position Sensitive Device) fast scan from 4 to 40 degrees are collected over approximately 32 minutes (0.5 sec/0.01° step). A sample is placed onto a polished zero-background silicon wafer by gently distributing onto the flat surface and is analyzed as a flat plate specimen.
as §1

[6] = MTBE, organic solvent or mixture
[7] = acetonitrile, organic solvent or mixture
[8] = ethyl acetate, organic solvent or mixture
[9] = ethanol, organic solvent or mixture

| solubility ([1]; MTBE) [mM] | solubility ([1]; acetone) [mM] | solubility ([1]; ethanol) [mM] | solubility ([1]; methanol) [mM] | solubility [2] [mM] | solubility (physchem; [6]) [mM] | solubility (physchem; [7]) [mM] | solubility (physchem; [8]) [mM] | qualitative solvent solubility overlaid with cocrystallization screens' results ([3]; acetone (BP 56° C.)) | consolidated solubility result ([3]; acetone) | consolidated solubility result ([3]; ethanol) | qualitative solvent solubility overlaid with cocrystallization screens' results ([3]; methanol (BP 65° C.)) | consolidated solubility result ([3]; methanol) | solubility ([1]; acetonitrile) [mM] | solubility ([1]; ethyl acetate) [mM] | qualitative solvent solubility overlaid with cocrystallization screens' results ([3]; acetonitrile (BP 82° C.)) | consolidated solubility result ([3]; acetonitrile) | consolidated solubility result ([3]; ethyl acetate) | qualitative solvent solubility overlaid with cocrystallization screens' results ([3]; water (BP 100° C.)) | consolidated solubility result ([3]; water) | SMILES | also measured |
| --- | --- | --- | --- | --- | --- | --- | --- | --- | --- | --- | --- | --- | --- | --- | --- | --- | --- | --- | --- | --- | --- |
| < 50 | > 100 | > 200 | > 200 | < 50 | < 50 | < 50 | < 50 | ✓ | ✓ | ✓ | ✓ | ✓ | – | – | – | – | – | – | – | O=C(O)/C=C/c1ccc(O)c(O)c1 [caffeic acid] | solubility (physchem; water): < 50 mM; qualitative solvent solubility overlaid with cocrystallization screens' results ([3]; ethanol (BP 79° C.)): ✓ |
| – | > 200 | > 100 | > 200 | < 50 | – | – | 200 (≈ 36.6 mg/mL) | ✓ | ✓ | ✓ | ✓ | ✓ | > 200 | > 200 | ✓ | ✓ | ✓ | – | – | O=C1NS(=O)(=O)c2ccccc21 [saccharin] | qualitative solubility at 0.05 M ([1]; MTBE): Y✓; solubility (physchem; [9]): 100 mM (≈ 18.3 mg/mL); solubility (physchem; water): < 50 mM; qualitative solvent solubility overlaid with cocrystallization screens' results ([3]; MTBE (BP 55° C.)): ✓; consolidated solubility result ([3]; MTBE): ✓ |
| – | – | – | – | > 50 | < 50 | < 50 | < 50 | – | – | – | – | – | – | – | – | – | – | ✓ | ✓ | N[C@@H](Cc1ccccc1)C(=O)O [phenylalanine] | solubility (physchem; acetone, organic solvent or mixture): < 50 mM; solubility (physchem; [9]): < 50 mM; solubility (physchem; methanol, organic solvent or mixture): < 50 mM |
| > 200 | > 200 | > 200 | > 200 | > 50 | – | – | 200 (≈ 30.4 mg/mL) | ✓ | ✓ | ✓ | ✓ | ✓ | > 200 | > 200 | ✓ | ✓ | ✓ | ✓ | ✓ | COc1cc(C=O)ccc1O [vanillin] | qualitative solvent solubility overlaid with cocrystallization screens' results ([3]; MTBE (BP 55° C.)): ✓; consolidated solubility result ([3]; MTBE): ✓; qualitative solvent solubility overlaid with cocrystallization screens' results ([3]; ethanol (BP 79° C.)): ✓ |
| – | > 200 | > 200 | > 200 | > 50 | < 50 | – | 50 (≈ 6.11 mg/mL) | – | ✓ | ✓ | ✓ | ✓ | > 100 | > 50 | ✓ | ✓ | ✓ | ✓ | ✓ | NC(=O)c1cccnc1 [nicotinamide] | Mass Change, Adsorption ([4]; DVS cycle 1 of 2, RH 5 to 95%): 1.11%; Mass Change, Desorption ([4]; DVS cycle 1 of 2, RH 95 to 5%): −1.11%; Mass Change, Adsorption ([4]; DVS cycle 2 of 2, RH 5 to 95%): 1.18%; Mass Change, Desorption ([4]; DVS cycle 2 of 2, RH 95 to 5%): −1.18%; solid form change after DVS exposure (XRPD pre- vs post-exposed) [5]: no solid state form changes |
